Measurements published in patent US8652999B1, “Herbicidal compositions comprising 4-amino-3-chloro-5-fluoro-6-(4-chloro-2-fluoro-3-methoxyphenyl)pyridine-2-carboxylic acid or a derivative thereof and a sulfonylaminocarbonyltriazolinone” (Dow AgroSciences, LLC., priority 2012, dated 2014).

Columns and labels:
Format in all cases: in vivo
Details in all cases: foliar, 20-22 days
[1] = tested on: Viola tricolor (VIOTR); experiment: Postemergence herbicidal activity, greenhouse, VIOTR
Method: (§1) Evaluation of Postemergence Herbicidal Activity of Mixtures in Cereal Crops
(§2) Seeds of the desired test plant species were planted in Sun Gro MetroMix® 306 planting mixture, which typically has a pH of 6.0 to 6.8 and an organic matter content of about 30 percent, in plastic pots with a surface area of 103.2 square centimeters (cm^2). […] The plants were grown for 7-36 days in a greenhouse with an approximate 14 hour photoperiod which was maintained at about 18° C. during the day and 17° C. during the night. Nutrients and water were added on a regular basis and supplemental lighting was provided with overhead metal halide 1000-Watt lamps as necessary. The plants were employed for testing when they reached the second or third true leaf stage.
(§3) Treatments consisted of the benzyl ester of the compound of formula (I) (Compound A as listed in Tables 1-8) and a second cereal herbicide alone and in combination. […] The concentrated stock solutions were diluted to 1.5 mg ai/mL with the addition of 2 volumes of an aqueous mixture containing acetone, water, isopropyl alcohol, DMSO, Agri-dex crop oil concentrate, and Triton® X-77 surfactant in a 64.7:26.0:6.7:2.0:0.7:0.01 v/v ratio. A dilution solution was prepared by mixing 1 volume of 97:3 v/v acetone/DMSO and 2 volumes of an aqueous mixture containing acetone, water, isopropyl alcohol, DMSO, Agri-dex crop oil concentrate, and Triton® X-77 surfactant in a 64.7:26.0:6.7:2.0:0.7:0.01 v/v ratio. Compound requirements are based upon a 12 mL application volume at a rate of 187 liters per hectare (L/ha). […] Formulated compounds were applied to the plant material with an overhead Mandel track sprayer equipped with 8002E nozzles calibrated to deliver 187 L/ha over an application area of 0.503 square meters (m^2) at a spray height of 18 inches (43 cm) above average plant canopy. Control plants were sprayed in the same manner with the solvent blank.
(§4) The treated plants and control plants were placed in a greenhouse as described above and watered by sub-irrigation to prevent wash-off of the test compounds. After 20-22 days, the condition of the test plants as compared with that of the control plants was determined visually and scored on a scale of 0 to 100 percent where 0 corresponds to no injury and 100 corresponds to complete kill.
(§5) Colby's equation was used to determine the herbicidal effects expected from the mixtures (Colby, S. R. 1967. Calculation of the synergistic and antagonistic response of herbicide combinations. Weeds 15:20-22.). Specifically, the following equation was used to calculate the expected activity of mixtures containing two active ingredients, A and B: Expected=A+B−(A×B/100) • A=observed efficacy of active ingredient A at the same concentration as used in the mixture. • B=observed efficacy of active ingredient B at the same concentration as used in the mixture.

[2] = tested on: Salsola tragus (SASKR); experiment: Postemergence herbicidal activity, greenhouse, SASKR
Method: as §1, §2, §3, §4, §5

[3] = tested on: Chenopodium album (CHEAL); experiment: Postemergence herbicidal activity, greenhouse, CHEAL
Method: as §1, §2
(§6) Treatments consisted of the benzyl ester of the compound of formula (I) (Compound A as listed in Tables 1-8) and a second cereal herbicide alone and in combination. […]
as §4, with “kill. […]” for “kill.”

[4] = tested on: Apera spica-venti (APESV); experiment: Postemergence herbicidal activity, greenhouse, APESV
Method: as §1, §2, §3, §4, §5

[5] = tested on: Setaria viridis (SETVI); experiment: Postemergence herbicidal activity, greenhouse, SETVI
Method: as §1, §2, §3, §4
(§7) Colby's equation was used to determine the herbicidal effects expected from the mixtures (Colby, S. R. 1967. Calculation of the synergistic and antagonistic response of herbicide combinations. Weeds 15:20-22.). […]

[6] = tested on: Galium aparine (GALAP); experiment: Postemergence herbicidal activity, greenhouse, GALAP
Method: as §1, §2, §6
as §4, with “kill. […]” for “kill.”

[7] = tested on: Cirsium arvense (CIRAR); experiment: Postemergence herbicidal activity, greenhouse, CIRAR
Method: as §1, §2, §3, §4, §5

[8] = tested on: Lolium multiflorum subsp. gaudini (LOLMG); experiment: Postemergence herbicidal activity, greenhouse, LOLMG
Method: as §1, §2, §3, §4, §5

[9] = tested on: Triticum aestivum (TRZAS); experiment: Postemergence herbicidal activity, greenhouse, TRZAS
Method: as §1, §2, §6
as §4, with “kill. […]” for “kill.”

[10] = tested on: Triticum aestivum (TRZAW); experiment: Postemergence herbicidal activity, greenhouse, TRZAW
Method: as §1, §2, §3, §4, §5

[11] = tested on: Alopecurus myosuroides (ALOMY); experiment: Postemergence herbicidal activity, greenhouse, ALOMY
Method: as §1, §2, §3, §4, §5

[12] = tested on: Papaver rhoeas (PAPRH); experiment: Postemergence herbicidal activity, greenhouse, PAPRH
Method: as §1, §2, §3, §4, §5

[13] = tested on: Matricaria chamomila (MATCH); experiment: Postemergence herbicidal activity, greenhouse, MATCH
Method: as §1, §2, §3, §4, §5

[14] = tested on: Lamium purpureum (LAMPU); experiment: Postemergence herbicidal activity, greenhouse, LAMPU
Method: as §1, §2, §3, §4, §7

[15] = tested on: Veronica persica (VERPE); experiment: Postemergence herbicidal activity, greenhouse, VERPE
Method: as §1, §2, §3, §4, §5

[16] = tested on: Kochia scoparia (KCHSC); experiment: Postemergence herbicidal activity, greenhouse, KCHSC
Method: as §1, §2, §3, §4, §5

[17] = tested on: Hordeum vulgare (HORVS); experiment: Postemergence herbicidal activity, greenhouse, HORVS
Method: as §1, §2, §6
as §4, with “kill. […]” for “kill.”

[18] = tested on: Stellaria media (STEME); experiment: Postemergence herbicidal activity, greenhouse, STEME
Method: as §1, §2, §3, §4, §5

[19] = Propoxycarbazone-Na 7.5 g ai/ha

COc1c(Cl)ccc(-c2nc(C(=O)OCc3ccccc3)c(Cl)c(N)c2F)c1F [Compound A, benzyl ester of 4-amino-3-chloro-5-fluoro-6-(4-chloro-2-fluoro-3-methoxyphenyl)pyridine-2-carboxylic acid]
VIOTR Obs ([1]; Compound A 2.5 g ha): 10%
VIOTR Obs ([1]; Compound A 5 g ai/ha): 27%
VIOTR Obs ([1]; Compound A 5 g ha): 10%
VIOTR Obs ([1]; Compound A 10 g ai/ha): 37%
SASKR Obs ([2]; Compound A 2.5 g ha): 10%
SASKR Obs ([2]; Compound A 5 g ai/ha): 75%
SASKR Obs ([2]; Compound A 5 g ha): 60%
SASKR Obs ([2]; Compound A 10 g ai/ha): 78%
CHEAL Obs ([3]; Compound A 2.5 g ha): 50%
CHEAL Obs ([3]; Compound A 5 g ha): 60%
APESV Obs ([4]; Compound A 5 g ha): 0%
APESV Obs ([4]; Compound A 5 g/ha): 0%
APESV Obs ([4]; Compound A 10 g ha): 0%
APESV Obs ([4]; Compound A 10 g/ha): 0%
SETVI Obs ([5]; Compound A 5 g ha): 0%
SETVI Obs ([5]; Compound A 10 g ha): 0%
GALAP Obs ([6]; Compound A 2.5 g ha): 60%
GALAP Obs ([6]; Compound A 5 g ha): 60%
CIRAR Obs ([7]; Compound A 2.5 g ha): 10%
CIRAR Obs ([7]; Compound A 5 g ha): 20%
CIRAR Obs ([7]; Compound A 8.75 g/ha): 40%
LOLMG Obs ([8]; Compound A 5 g ha): 0%
LOLMG Obs ([8]; Compound A 5 g/ha): 0%
LOLMG Obs ([8]; Compound A 10 g ha): 0%
LOLMG Obs ([8]; Compound A 10 g/ha): 0%
TRZAS Obs ([9]; Compound A 2.5 g ha): 0%
TRZAS Obs ([9]; Compound A 5 g ha): 5%
TRZAW Obs ([10]; Compound A 5 g ai/ha): 7%
TRZAW Obs ([10]; Compound A 10 g ai/ha): 7%
ALOMY Obs ([11]; Compound A 5 g ha): 0%
ALOMY Obs ([11]; Compound A 5 g/ha): 0%
ALOMY Obs ([11]; Compound A 10 g ha): 0%
ALOMY Obs ([11]; Compound A 10 g/ha): 0%
PAPRH Obs ([12]; Compound A 5 g ai/ha): 46%
PAPRH Obs ([12]; Compound A 10 g ai/ha): 48%
MATCH Obs ([13]; Compound A 2.5 g ha): 0%
MATCH Obs ([13]; Compound A 5 g ai/ha): 20%
MATCH Obs ([13]; Compound A 5 g ha): 10%
MATCH Obs ([13]; Compound A 8.75 g/ha): 20%
MATCH Obs ([13]; Compound A 10 g ai/ha): 40%
LAMPU Obs ([14]; Compound A 2.5 g ha): 80%
LAMPU Obs ([14]; Compound A 5 g ha): 80%
LAMPU Obs ([14]; Compound A 8.75 g/ha): 83%
VERPE Obs ([15]; Compound A 5 g ai/ha): 13%
VERPE Obs ([15]; Compound A 8.75 g/ha): 50%
VERPE Obs ([15]; Compound A 10 g ai/ha): 25%
KCHSC Obs ([16]; Compound A 2.5 g ha): 20%
KCHSC Obs ([16]; Compound A 5 g ai/ha): 60%
KCHSC Obs ([16]; Compound A 5 g ha): 40%
KCHSC Obs ([16]; Compound A 10 g ai/ha): 57%
HORVS Obs ([17]; Compound A 2.5 g ha): 0%
HORVS Obs ([17]; Compound A 5 g ha): 0%
STEME Obs ([18]; Compound A 5 g ai/ha): 50%
STEME Obs ([18]; Compound A 8.75 g/ha): 68%
STEME Obs ([18]; Compound A 10 g ai/ha): 63%

COc1nn(C(=O)NS(=O)(=O)c2ccccc2OC(F)(F)F)c(=O)n1C [Flucarbazone-Na, 4,5-dihydro-3-methoxy-4-methyl-5-oxo-N-[[2-(trifluoromethoxy)phenyl]sulfonyl]-1H-1,2,4-triazole-1-carboxamide]
VIOTR Obs ([1]; Flucarbazone-Na 3.75 g ai/ha): 7%
VIOTR Obs ([1]; Flucarbazone-Na 7.5 g ai/ha): 7%
SASKR Obs ([2]; Flucarbazone-Na 3.75 g ai/ha): 10%
SASKR Obs ([2]; Flucarbazone-Na 7.5 g ai/ha): 7%
APESV Obs ([4]; Flucarbazone-Na 3.75 g/ha): 33%
APESV Obs ([4]; Flucarbazone-Na 7.5 g/ha): 75%
CIRAR Obs ([7]; Flucarbazone-Na 7.5 g/ha): 50%
LOLMG Obs ([8]; Flucarbazone-Na 3.75 g/ha): 0%
LOLMG Obs ([8]; Flucarbazone-Na 7.5 g/ha): 0%
TRZAW Obs ([10]; Flucarbazone-Na 3.75 g ai/ha): 2%
TRZAW Obs ([10]; Flucarbazone-Na 7.5 g ai/ha): 7%
ALOMY Obs ([11]; Flucarbazone-Na 3.75 g/ha): 8%
ALOMY Obs ([11]; Flucarbazone-Na 7.5 g/ha): 17%
PAPRH Obs ([12]; Flucarbazone-Na 3.75 g ai/ha): 0%
PAPRH Obs ([12]; Flucarbazone-Na 7.5 g ai/ha): 0%
MATCH Obs ([13]; Flucarbazone-Na 3.75 g ai/ha): 10%
MATCH Obs ([13]; Flucarbazone-Na 7.5 g ai/ha): 10%
MATCH Obs ([13]; Flucarbazone-Na 7.5 g/ha): 30%
VERPE Obs ([15]; Flucarbazone-Na 3.75 g ai/ha): 0%
VERPE Obs ([15]; Flucarbazone-Na 7.5 g ai/ha): 0%
VERPE Obs ([15]; Flucarbazone-Na 7.5 g/ha): 0%
STEME Obs ([18]; Flucarbazone-Na 3.75 g ai/ha): 3%
STEME Obs ([18]; Flucarbazone-Na 7.5 g ai/ha): 7%
STEME Obs ([18]; Flucarbazone-Na 7.5 g/ha): 60%

CCCOc1nn(C(=O)NS(=O)(=O)c2ccccc2C(=O)OC)c(=O)n1C [Propoxycarbazone-Na, methyl 2-[[[(4,5-dihydro-4-methyl-5-oxo-3-propoxy-1H-1,2,4-triazol-1-yl)-carbonyl]amino]sulfonyl]benzoate]
VIOTR Obs [1, 19]: 13%
VIOTR Obs ([1]; Propoxycarbazone-Na 15 g ai/ha): 23%
APESV Obs ([4]; Propoxycarbazone-Na 7.5 g ha): 17%
APESV Obs ([4]; Propoxycarbazone-Na 15 g ha): 23%
SETVI Obs ([5]; Propoxycarbazone-Na 7.5 g ha): 0%
SETVI Obs ([5]; Propoxycarbazone-Na 15 g ha): 0%
CIRAR Obs ([7]; Propoxycarbazone-Na 15 g/ha): 65%
LOLMG Obs ([8]; Propoxycarbazone-Na 7.5 g ha): 3%
LOLMG Obs ([8]; Propoxycarbazone-Na 15 g ha): 20%
TRZAW Obs [10, 19]: 8%
TRZAW Obs ([10]; Propoxycarbazone-Na 15 g ai/ha): 5%
ALOMY Obs ([11]; Propoxycarbazone-Na 7.5 g ha): 10%
ALOMY Obs ([11]; Propoxycarbazone-Na 15 g ha): 43%
PAPRH Obs [12, 19]: 18%
PAPRH Obs ([12]; Propoxycarbazone-Na 15 g ai/ha): 23%
MATCH Obs [13, 19]: 13%
MATCH Obs ([13]; Propoxycarbazone-Na 15 g ai/ha): 20%
LAMPU Obs ([14]; Propoxycarbazone-Na 15 g/ha): 0%
KCHSC Obs [16, 19]: 13%
KCHSC Obs ([16]; Propoxycarbazone-Na 15 g ai/ha): 25%
STEME Obs [18, 19]: 12%
STEME Obs ([18]; Propoxycarbazone-Na 15 g ai/ha): 10%
STEME Obs ([18]; Propoxycarbazone-Na 15 g/ha): 45%
